US9458480B2, “Microorganisms and methods for the biosynthesis of adipate, hexamethylenediamine and 6-aminocaproic acid” (GENOMATICA, INC., priority 2009, dated 2016)

B1: pcaF from Pseudomonas putida KT2440: β-ketothiolase pcaF from Pseudomonas putida KT2440 (protein, UniProt Q51956 1-400, looked up)
Beta-ketoadipyl-CoA thiolase: MRDVFICDAIRTPIGRFGGALAGVRADDLAAVPLKALIEPNPAVQWDQVDEVFFGCANQAGEDNRNVARMALLLAGLPESIPGVTLNRLCASGMDAIGTAFRAIASGEMELAIAGGVESMSRAPFVMGKAESGYSRNMKLEDTTIGWRFINPLMKSQYGVDSMPETADNVADDYQVSRADQDAFALRSQQKAAAAQAAGFFAEEIVPVRIAHKKGETIVERDEHLRPETTLEALTKLKPVNGPDKTVTAGNASGVNDGAAALILASAEAVKKHGLTPRARVLGMASGGVAPRVMGIGPVPAVRKLTERLGVAVSDFDVIELNEAFASQGLAVLRELGVADDAPQVNPNGGAIALGHPLGMSGARLVLTALHQLEKSGGRKGLATMCVGVGQGLALAIERV
B2: pcaF from Pseudomonas aeruginosa PAO1: β-ketothiolase pcaF from Pseudomonas aeruginosa PAO1 (protein, UniProt Q9I6R0 1-401, looked up)
Beta-ketoadipyl-CoA thiolase: MSREVFICDAVRTPIGRFGGSLSAVRADDLAAVPLKALVERNPGVDWSALDEVFLGCANQAGEDNRNVARMALLLAGLPESVPGVTLNRLCASGMDAIGTAFRAIACGEMELAIAGGVESMSRAPYVMGKADSAFGRGQKIEDTTIGWRFVNPLMKEQYGIDPMPQTADNVADDYRVSRADQDAFALRSQQRAGRAQEAGFFAEEIVPVTIRGRKGDTLVEHDEHPRPDTTLEALARLKPVNGPEKTVTAGNASGVNDGAAALVLASAEAVEKHGLTPRARVLGMASAGVAPRIMGIGPVPAVRKLLRRLDLAIDAFDVIELNEAFASQGLACLRELGVADDSEKVNPNGGAIALGHPLGMSGARLVLTALHQLEKSGGRRGLATMCVGVGQGLALAIERV
B3: paaJ: β-ketothiolase paaJ from Escherichia coli, His-tagged, purified (protein, UniProt P0C7L2 1-401, looked up)
3-oxoadipyl-CoA/3-oxo-5,6-dehy …: MREAFICDGIRTPIGRYGGALSSVRADDLAAIPLRELLVRNPRLDAECIDDVILGCANQAGEDNRNVARMATLLAGLPQSVSGTTINRLCGSGLDALGFAARAIKAGDGDLLIAGGVESMSRAPFVMGKAASAFSRQAEMFDTTIGWRFVNPLMAQQFGTDSMPETAENVAELLKISREDQDSFALRSQQRTAKAQSSGILAEEIVPVVLKNKKGVVTEIQHDEHLRPETTLEQLRGLKAPFRANGVITAGNASGVNDGAAALIIASEQMAAAQGLTPRARIVAMATAGVEPRLMGLGPVPATRRVLERAGLSIHDMDVIELNEAFAAQALGVLRELGLPDDAPHVNPNGGAIALGHPLGMSGARLALAASHELHRRNGRYALCTMCIGVGQGIAMILERV
modifications: His-tag
notes: β-ketothiolase paaJ from Escherichia coli, His-tagged, purified

Tests used:
[1] = target: Lysine decarboxylase (EC 4.1.1.18) (Escherichia coli, UniProt P0A9H3); conditions: E. coli enzyme; cited from earlier work
E. coli [2] = assay: Growth of E. coli in media containing various concentrations of 6-ACA; type: cell-based, Escherichia coli
Description: E. coli was inoculated into media and grown in either aerobic (left and right bars) or anaerobic (middle bars) conditions. The cultures were grown for 48 hrs during the first trial and 30 hrs for a second trial under aerobic conditions (right bars).
(§1) E. coli was assayed for tolerance, metabolic activity and growth during exposure to various concentrations of 6-aminocaproate (6-ACA). Aerobically, cultures were able to grow media with up to 10% 6-ACA, while anaerobic cultures could grow in media with approximately 6% 6-ACA (FIG. 15). Because the pathway for producing 6-ACA could require anaerobic conditions, all other further testing was performed under anaerobic conditions. To assay tolerance, cultures were grown anaerobically to mid-log(0.3 OD) and early stationary phase (0.6 OD), the cells were spun down and resuspended in medium containing various concentrations of 6-ACA. The cultures were grown in capped microfuge tubes, grown overnight and the ODs of the cultures were assayed (FIG. 16). Under these conditions, cultures were able to grow (double at least 1 time) in up to 10% 6-ACA. The additional tolerance could have been from the additional glucose from resuspending the cultures in fresh M9-glucose medium or from limited oxygen that was present in the capped microfuge tube. […]

E. coli [3] = assay: Tolerance of E. coli cells resuspended in medium with various concentrations of 6-ACA (OD after overnight growth); type: cell-based, Escherichia coli; conditions: cells grown anaerobically to mid-log (0.3 OD) and early stationary phase (0.6 OD), resuspended in fresh M9-glucose medium, capped microfuge tubes
Description: Midlog (OD600=0.3, lower dashed line) or early stationary (OD600=0.6, upper dashed line) cells were spun down and resuspended in fresh M9-Glucose medium with various concentrations of 6-ACA. After overnight growth, cultures were measured for growth by measuring OD600.
as §1

E. coli [4] = assay: Ethanol production (metabolic activity) of E. coli cultures exposed to 6-ACA; type: cell-based, Escherichia coli; conditions: resuspended cultures, overnight growth
Description: Midlog or early stationary cells were spun down and resuspended in fresh M9-Glucose medium with various concentrations of 6-ACA. After overnight growth, cultures were measured for growth by measuring OD600 and metabolic activity assayed by ethanol production.
as §1

E. coli [5] = type: cell-based, Escherichia coli
Description: FIG. 18, panels A and B, show the growth in various concentrations of 6-ACA with and without glycine betaine. Panel A. OD600 measurements of medium inoculated with midlog cultures of E. coli with various concentrations of 6-ACA with (right bars) and without (left bars) 2 mM glycine betaine. Panel B. Photograph showing the growth of same cultures in the anaerobic bottles.
At high concentrations (>65 g/L) the osmolarity of 6-ACA is ˜0.5 M which may cause osmotic stress. To determine osmotic stress as the basis for 6-ACA growth inhibition, cultures were grown in various concentrations of 6-ACA with and without the osmoprotectant glycine betaine. […] Therefore much of the toxicity of 6-ACA is likely due to the osmotic stress. However, it should be noted that […] is similar to the amino acid lysine and could have a greater toxic effect in the cell cytoplasm vs. outside the cell.

[6] = In vitro thiolase reactions with purified His-tagged thiolases, LC/MS analysis; type: biochemical; conditions: for Condensation of succinyl-CoA and acetyl-CoA into β-ketoadipyl-CoA: 0.5 μM purified thiolase, succinyl-CoA:acetyl-CoA 2:1, 30° C., 30 minutes, LC/MS; for Activities in the oxoadipyl-CoA forming direction: as summarised in Example XXVI
Description: Succinyl-CoA and acetyl-CoA were added to His-tagged, purified thiolases at a ratio of 2:1 (succinyl-CoA:acetyl-CoA). Reactions were analyzed by LC/MS and quantified by comparison to a standard for acetoacetyl-CoA or peak area determined for 3-oxoadipyl-CoA (β-ketoadipyl-CoA).
For example, the gene products encoded by pcaF in Pseudomonas strain B13 (Kaschabek et al., J. Bacteriol, 184(1): 207-15 (2002)), phaD in Pseudomonas putida U (Olivera et al., Proc Nall Acad Sci USA, 95(11), 6419-24 (1998)), paaE in Pseudomonas fluorescens ST (Di Gennaro et al., Arch Microbiol, 188(2), 117-25 (2007)), and paaJ from E. coli (Nogales et al., Microbiology, 153(Pt 2), 357-65 (2007)) catalyze the conversion of 3-oxoadipyl-CoA into succinyl-CoA and acetyl-CoA during the degradation of aromatic compounds such as phenylacetate or styrene.
The genes were expressed in E. coli and the proteins purified using Ni-NTA spin columns and quantified. To assay enzyme activity in vitro, a […] CoA:DTNB (Ellman's reagent or 5,5′-dithiobis-(2-nitrobenzoic acid)) mixture was prepared. The mixture consisted of 10 mM succinyl-CoA, 5 mM acetyl-CoA, 30 mM DTNB in 100 mM Tris buffer, pH 7.4. […] of the CoA:DTNB mixture was added to 0.5 μM purified thiolase enzyme in 100 mM Tris buffer, pH 7.8 in a final volume of 50 μL. The reaction was incubated at 30° C. for 30 minutes, then quenched with 2.5 μL 10% formic acid and samples frozen at −20° C. until ready for analysis by LC/MS. Because many thiolases can condense two acetyl-CoA molecules into acetoaceytl-CoA, production of acetoacetyl-CoA was examined. […] These were fadAx from Pseudomonas putida, thiA from Clostridium acetobutylicum and thiB also from Clostridium acetobutylicum. […] There was excellent specificity between the thiolases.

Sequence of Lysine decarboxylase (EC 4.1.1.18) (P0A9H3 whole entry): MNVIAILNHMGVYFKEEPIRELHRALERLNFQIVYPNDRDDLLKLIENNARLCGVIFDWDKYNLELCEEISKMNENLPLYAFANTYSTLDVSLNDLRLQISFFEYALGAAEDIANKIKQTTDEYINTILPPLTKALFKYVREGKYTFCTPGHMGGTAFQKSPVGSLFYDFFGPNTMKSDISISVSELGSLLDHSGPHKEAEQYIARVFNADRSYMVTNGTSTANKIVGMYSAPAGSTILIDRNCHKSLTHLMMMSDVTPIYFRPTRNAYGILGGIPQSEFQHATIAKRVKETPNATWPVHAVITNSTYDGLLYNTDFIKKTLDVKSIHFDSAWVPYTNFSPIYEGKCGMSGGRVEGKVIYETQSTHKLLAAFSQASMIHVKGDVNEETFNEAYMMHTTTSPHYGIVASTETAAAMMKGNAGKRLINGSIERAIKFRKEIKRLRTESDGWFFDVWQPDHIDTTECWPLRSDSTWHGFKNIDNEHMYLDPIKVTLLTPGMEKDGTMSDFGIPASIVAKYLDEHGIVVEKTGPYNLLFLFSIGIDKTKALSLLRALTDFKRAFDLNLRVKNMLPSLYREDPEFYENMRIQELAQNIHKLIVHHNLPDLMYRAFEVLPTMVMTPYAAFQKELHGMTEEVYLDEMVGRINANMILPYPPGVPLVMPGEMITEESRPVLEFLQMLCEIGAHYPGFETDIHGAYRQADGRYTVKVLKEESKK

Molecule | Inhibition of lysine decarboxylase [1] | Condensation of succinyl-CoA and acetyl-CoA into β-ketoadipyl-CoA [6] | Activities in the oxoadipyl-CoA forming direction [6] | further results
NC(CCCCC(=O)O)C(=O)O (stereo not drawn) [2-Aminopimelate] | competitive inhibitors | – | – | –
NCCCCCC(=O)O [6-ACA, 6-aminocaproic acid] | competitive inhibitors | – | – | 6-ACA concentration in media in which cultures were able to grow (E. coli [2]; aerobic): up to 10%; 6-ACA concentration in media in which cultures could grow (E. coli [2]; anaerobic): approximately 6%; 6-ACA concentration in which cultures were able to grow (double at least 1 time) (E. coli [3]): up to 10%; Ethanol production (metabolic activity) in the presence of 6-ACA (E. coli [4]): closely tracked with OD; 6-ACA concentration in medium allowing anaerobic growth (E. coli [5]): 4-6%
B1 | – | demonstrated the desired activity | – | –
B2 | – | demonstrated the desired activity | significant and selective activities | –
B3 | – | demonstrated the desired activity | significant and selective activities | –
